Consider 86 compounds from the Kinase Knowledgebase extract (Sharma et al. 2016).

In the experiment the target is PIK3CA (human) (UniProt P42336). As to the kind of experiment: Assessment of PIK3CA Kinase Activity.
PIK3CA (human), sequence (P42336 whole entry, looked up): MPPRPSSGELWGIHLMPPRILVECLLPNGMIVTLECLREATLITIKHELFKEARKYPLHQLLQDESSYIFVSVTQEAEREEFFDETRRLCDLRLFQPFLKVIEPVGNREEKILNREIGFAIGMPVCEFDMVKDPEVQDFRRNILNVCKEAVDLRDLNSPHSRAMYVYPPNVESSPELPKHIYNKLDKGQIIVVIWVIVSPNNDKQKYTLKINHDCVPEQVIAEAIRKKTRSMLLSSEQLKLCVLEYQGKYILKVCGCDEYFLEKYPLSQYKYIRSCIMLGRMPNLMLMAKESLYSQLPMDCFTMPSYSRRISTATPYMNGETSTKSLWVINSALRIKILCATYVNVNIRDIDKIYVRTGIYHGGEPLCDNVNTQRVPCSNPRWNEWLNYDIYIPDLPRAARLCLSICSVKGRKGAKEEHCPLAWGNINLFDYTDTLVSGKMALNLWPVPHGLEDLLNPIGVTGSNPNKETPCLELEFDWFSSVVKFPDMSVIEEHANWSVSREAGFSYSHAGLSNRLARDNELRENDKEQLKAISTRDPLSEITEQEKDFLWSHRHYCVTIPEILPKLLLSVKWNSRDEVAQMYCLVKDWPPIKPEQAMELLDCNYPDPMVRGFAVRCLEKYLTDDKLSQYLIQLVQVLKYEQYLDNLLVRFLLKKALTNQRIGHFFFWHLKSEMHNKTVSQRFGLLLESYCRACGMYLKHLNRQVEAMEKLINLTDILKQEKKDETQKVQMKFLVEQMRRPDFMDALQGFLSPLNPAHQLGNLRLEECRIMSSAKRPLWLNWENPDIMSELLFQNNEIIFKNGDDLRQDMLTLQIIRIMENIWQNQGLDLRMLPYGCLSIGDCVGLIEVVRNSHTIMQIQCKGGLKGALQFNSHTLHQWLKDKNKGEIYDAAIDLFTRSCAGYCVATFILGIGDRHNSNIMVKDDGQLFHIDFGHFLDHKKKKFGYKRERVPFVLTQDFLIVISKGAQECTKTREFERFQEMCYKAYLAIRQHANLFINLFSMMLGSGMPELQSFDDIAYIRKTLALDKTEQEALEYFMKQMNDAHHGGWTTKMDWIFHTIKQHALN
Consider `C[C@H](Oc1ccc2c(c1)OCCn1cc(-c3ncnn3CC(F)(F)F)nc1-2)C(N)=O`, for which the IC50 was below 1 µM. The compound `CC(C)n1ncnc1-c1cn2c(n1)-c1cc(-c3cncnc3)ccc1OCC2` came in with an IC50 below 1 µM. Under `CN(C)c1cc2c(cn1)-c1nc(-c3nc(CO)nn3CC(F)(F)F)cn1CCO2` stands below 1 µM. Under `CC(C)n1ncnc1-c1cn2c(n1)-c1ccc(N3CC(F)(F)C[C@H]3C(N)=O)cc1OCC2` stands below 1 µM; under `CC(C)n1ncnc1-c1cn2c(n1)-c1ccc(=O)[nH]c1OCC2`, below 1 µM; under `CC(C)(CO)NC(=O)c1ccc2c(c1)OCCn1cc(-c3ncnn3-c3ccccc3Cl)nc1-2`, below 1 µM. The figure for `CC(C)n1nc(CC(N)=O)nc1-c1cn2c(n1)-c1ccc(Br)cc1OCC2` is below 1 µM; for `CC(C)n1ncnc1-c1cc2n(n1)-c1cc(C(=O)N3CCN(CC(F)(F)F)CC3)ccc1OCC2` it is below 1 µM; for `O=C(c1ccc2c(c1)-c1nc(-c3ncnn3CC(F)(F)F)cn1CCO2)N1CCOCC1` it is below 1 µM. `CC(Sc1ccc2c(c1)OCCn1cc(-c3ncnn3C(C)C)nc1-2)C(N)=O` (stereo unspecified): the IC50 was below 1 µM. The figure for `CC(C)n1ncnc1-c1cn2c(n1)-c1ccc(COC(N)=O)cc1OCC2` is below 1 µM; for `CC(C)n1ncnc1-c1cn2c(n1)-c1ccc(C3CN(C(=O)C4(N)CC4)C3)cc1OCC2` it is below 1 µM.

As for `CCOc1ccc2c(c1)OCCn1cc(-c3nc(C)nn3C(C)C)nc1-2`, the IC50 is below 1 µM. `CC(C)n1ncnc1-c1cn2c(n1)-c1ccc(C3=NC(C)(C)CO3)cc1OCC2`: the IC50 is below 1 µM.

Take `CCN(CC)CCn1cc(-c2ccc3c(c2)OCCn2cc(-c4ncnn4C(C)C)nc2-3)cn1`: the IC50 was below 1 µM. `NC(=O)[C@@H]1CCCN1c1cc2c(cn1)-c1nc(-c3ncnn3CC(F)(F)F)cn1CCO2` came in with an IC50 below 1 µM. Under `CC(C)N(CCO)C(=O)c1cc2n(n1)-c1ccccc1OCC2` stands below 1 µM; under `CC(C)n1ncnc1-c1cn2c(n1)-c1cc(Br)ccc1OCC2`, below 1 µM. For the compound `CC(C)n1ncnc1-c1cn2c(n1)-c1ccc(-c3cn(CC(C)(C)O)cn3)cc1OCC2`, the IC50 was below 1 µM. `Cc1ncc(-c2ccc3c(c2)OCCn2cc(-c4ncnn4C(C)C)nc2-3)n1C`: the IC50 was below 1 µM. Regarding `CC(C)(O)CN1CCC(c2ccc3c(c2)-c2nn(-c4ncnn4-c4ccc(F)cc4F)cc2CCO3)CC1`, the IC50 was below 1 µM.

In turn, `CCOC(=O)C(C)(C)n1cc(-c2ccc3c(c2)OCCn2cc(-c4nc(C)nn4C(C)C)nc2-3)cn1` had an IC50 below 1 µM. Under `NC(=O)c1ccc2c(c1)OCCn1cc(-c3ncnn3-c3ccccc3Cl)nc1-2` stands below 1 µM; under `CC(C)n1ncnc1-c1cn2c(n1)-c1ccc(-c3cnc[nH]3)cc1OCC2`, below 1 µM. The figure for `CC(C)n1ncnc1-c1cn2c(n1)-c1cnc(N3CCN(CC(=O)N(C)C)CC3)cc1OCC2` is below 1 µM; for `CC(C)n1nccc1-c1cn2c(n1)-c1ccc(CNC(N)=O)cc1OCC2` it is below 1 µM; for `Cc1nc(-c2cn3c(n2)-c2ccc(-c4cn(CC(C)(C)O)cn4)cc2OCC3)n(C(C)C)n1` it is below 1 µM. `Cc1nc(-c2cn3c(n2)-c2ccc(CC(N)=O)cc2OCC3)n(C(C)C)n1` came in with an IC50 below 1 µM. The compound `CC(C)n1ncnc1-c1cn2c(n1)-c1cnc(N3CC[C@H](O)[C@H]3C(N)=O)cc1OCC2` gave an IC50 below 1 µM. Under `CO[C@H]1CCN(c2cc3c(cn2)-c2nc(-c4ncnn4C(C)C)cn2CCO3)[C@@H]1C(N)=O` stands below 1 µM. The figure for `CC(C)n1ncnc1-c1cn2c(n1)-c1ccc(OC3CCC3)cc1OCC2` is below 1 µM; for `CNC(=O)c1ccc2c(c1)OCCn1cc(-c3ncnn3-c3ccccc3Cl)nc1-2` it is below 1 µM.

Take `CC(C)n1nc(N)nc1-c1cn2c(n1)-c1cc(-c3ccccc3)ccc1OCC2`: the IC50 was below 1 µM. `CC(C)n1ncnc1-c1cn2c(n1)-c1ccc(C3CCN(CC(=O)N(C)C)CC3)cc1OCC2`: the IC50 was below 1 µM.

With `NC(=O)C1(Oc2ccc3c(c2)OCCn2cc(-c4ncnn4CC(F)(F)F)nc2-3)CC1`, the IC50 is below 1 µM.

`CC(C)n1nccc1-c1cn2c(n1)-c1cnc(N3CCC[C@H]3C(N)=O)cc1OCC2` registered an IC50 below 1 µM. On to `CC(C)n1ncnc1-c1cn2c(n1)-c1ccc(-c3cnc(N)nc3)cc1OCC2`, for which the IC50 was below 1 µM. Under `NC(=O)[C@@H]1CNCCN1c1ccc2c(c1)OCCn1cc(-c3ncnn3CC(F)(F)F)nc1-2` stands below 1 µM; under `Nc1cc2c(cn1)-c1nc(-c3ncnn3CC(F)(F)F)cn1CCO2`, below 1 µM. Consider `CC(C)n1ncnc1-c1cn2c(n1)-c1cc(-c3ccc[nH]c3=O)ccc1OCC2`, for which the IC50 was below 1 µM. Take `CC[C@H](Oc1ccc2c(c1)OCCn1cc(-c3ncnn3C(C)C)nc1-2)C(N)=O`: the IC50 was below 1 µM.

`CCOC(=O)C(C)Cn1cc(-c2ccc3c(c2)OCCn2cc(-c4nc(C)nn4C(C)C)nc2-3)cn1` (stereo unspecified): the IC50 was below 1 µM.

In turn, `NC(=O)[C@@H]1CCCCN1c1ccc2c(c1)OCCn1cc(-c3ncnn3CC(F)(F)F)nc1-2` registered an IC50 below 1 µM.

As for `CC(C)n1ncnc1-n1cc2c(n1)-c1cc(C(=O)Nc3cnn(CCO)c3)ccc1OCC2`, the IC50 is below 1 µM.

`O=C1CCCN1CCNc1cc2c(cn1)-c1nc(-c3ncnn3-c3ccc(F)cc3F)cn1CCO2` gave an IC50 below 1 µM. In the case of `COC(=O)C(C)(C)n1cc(-c2ccc3c(c2)OCCn2cc(-c4nc(C)nn4C(C)C)nc2-3)cn1`, the IC50 was below 1 µM.

For `CC(C)n1ccnc1-c1cn2c(n1)-c1ccc(-c3cnn(CC(C)(C)O)c3)cc1OCC2`, the IC50 is below 1 µM. Under `Nc1nc(-c2cn3c(n2)-c2cc(F)ccc2OCC3)n(CC(F)(F)F)n1` stands below 1 µM; under `CC(C)n1ncnc1-c1cn2c(n1)-c1ccc(NCC(N)=O)cc1OCC2`, below 1 µM.

The compound `O=C(c1ccc2c(c1)-c1nc(-c3ncnn3CC(F)(F)F)cn1CCO2)N1CCC(O)CC1` gave an IC50 below 1 µM.

`Cc1nc(-c2cn3c(n2)-c2ccc(N4CC[C@H]4C(N)=O)cc2OCC3)n(CC(F)(F)F)n1` returned an IC50 below 1 µM.

`Cc1nc(-c2cn3c(n2)-c2ccc(-c4cnc(N)nc4)cc2OCC3)n(C(C)C)n1` had an IC50 below 1 µM.

Compound `COC(=O)C(C)Cn1cc(-c2ccc3c(c2)OCCn2cc(-c4nc(C)nn4C(C)C)nc2-3)cn1` (stereo unspecified) came in with an IC50 below 1 µM. Under `CC(C)n1ncnc1-c1cn2c(n1)-c1ccc(OC(F)F)cc1OCC2` stands below 1 µM; under `Cc1nc(-c2cn3c(n2)-c2ccc(-c4cnn(CCO)c4)cc2OCC3)n(C)n1`, below 1 µM; under `CC(C)n1ncnc1-c1cn2c(n1)-c1ccc(C3CN(CCS(=O)(=O)N(C)C)C3)cc1OCC2`, below 1 µM. With `Cc1nc(-c2cn3c(n2)-c2ccc(C4CCN(C(C)(C)C(N)=O)CC4)cc2OCC3)n(C(C)C)n1`, the IC50 was below 1 µM. The figure for `CC(C)n1ncnc1-c1cn2c(n1)-c1ccc(-c3cncn3CCO)cc1OCC2` is below 1 µM. As to `CNC(=O)Cn1ccnc1-c1cn2c(n1)-c1ccc(-c3cnn(CC(C)(C)O)c3)cc1OCC2`, the IC50 is below 1 µM. Under `Cc1nc(-c2cn3c(n2)-c2ccc(-c4cnc(N(C)C)nc4)cc2OCC3)n(C(C)C)n1` stands below 1 µM; under `CC(C)n1ncnc1-c1cn2c(n1)-c1cnc(N3CCC(O)CC3)cc1OCC2`, below 1 µM; under `Cc1nc(-c2ccc3c(c2)OCCn2cc(-c4ncnn4C(C)C)nc2-3)cn1CC(C)(C)O`, below 1 µM. Compound `NC(=O)[C@@H]1CCN1c1ccc2c(c1)OCCn1cc(-c3ncnn3CC(F)(F)F)nc1-2` came in with an IC50 below 1 µM. On to `Cc1nc(-c2cn3c(n2)-c2ccc(C4CC4)cc2OCC3)n(C(C)CO)n1` (stereo unspecified), for which the IC50 was below 1 µM.

Regarding `CC(C)n1ncnc1-c1cn2c(n1)-c1ccc(C3CCN(CC(C)(C)O)CC3)cc1OCC2`, the IC50 is below 1 µM. `Cc1nc(-c2cn3c(n2)-c2ccc(C4CCN(CCO)CC4)cc2OCC3)n(C(C)C)n1` showed an IC50 below 1 µM. `Cc1nc(-c2cn3c(n2)-c2cc(F)ccc2OCC3)n(C(C)C)n1` gave an IC50 below 1 µM.

The compound `Clc1ccccc1-n1ncnc1-c1cn2c(n1)-c1cc(-c3ccccc3)ccc1OCC2` registered an IC50 below 1 µM. For the compound `CC(C)n1ncnc1-c1cn2c(n1)-c1ccc(-c3cnc(CC(C)(C)O)[nH]3)cc1OCC2`, the IC50 is below 1 µM. `CC(C)n1ncnc1-c1cc2n(n1)-c1cc(C3CN(S(C)(=O)=O)C3)ccc1OCC2`: the IC50 was below 1 µM. The figure for `NC(=O)CN1CC(c2ccc3c(c2)OCCc2cn(-c4ncnn4-c4ccc(F)cc4F)nc2-3)C1` is below 1 µM; for `Cc1nc(-c2cn3c(n2)-c2ccc(-c4cn(CCO)cn4)cc2OCC3)n(C(C)C)n1` it is below 1 µM; for `Cc1nc(-c2cn3c(n2)-c2ccccc2OCC3)n(C(C)C)n1` it is below 1 µM. Compound `CC(C)n1ncnc1-c1cn2c(n1)-c1ccc(C3=C(C(N)=O)CN(C)CC3)cc1OCC2` returned an IC50 below 1 µM. Under `Nc1nc(-c2cn3c(n2)-c2cc(C(F)(F)F)ccc2OCC3)n(CC(F)(F)F)n1` stands below 1 µM; under `CS(=O)(=O)CCNC(=O)c1ccc2c(c1)-c1nc(-c3ncnn3CC(F)(F)F)cn1CCO2`, below 1 µM. Under `NC(=O)CN1CCC(c2ccc3c(c2)-c2nn(-c4ncnn4-c4ccc(F)cc4F)cc2CCO3)CC1` stands below 1 µM; under `CC(C)n1ncnc1-c1cn2c(n1)-c1ccc(C3CCN(C(=O)C(C)(C)O)CC3)cc1OCC2`, below 1 µM; under `FC(F)(F)Cn1ncnc1-c1cc2n(n1)-c1cc(CNc3cnccn3)ccc1OCC2`, below 1 µM. `CC(C)n1ncnc1-c1cn2c(n1)-c1ccc(C3CCN(C(C)(C)C(N)=O)CC3)cc1OCC2` registered an IC50 below 1 µM.

`Cc1ncc(-c2ccc3c(c2)OCCn2cc(-c4ncnn4C(C)C)nc2-3)n1CCO` returned an IC50 below 1 µM.

In the case of `Cc1nc(-c2cn3c(n2)-c2ccc(-c4cnn(CCO)c4)cc2OCC3)n(C(C)C)n1`, the IC50 is below 1 µM. Under `CC(C)n1ncnc1-c1cn2c(n1)-c1ccc(CC(=O)O)cc1OCC2` stands below 1 µM. With `CNC(=O)CN1CCC(c2ccc3c(c2)OCCn2cc(-c4nc(C)nn4C(C)C)nc2-3)CC1`, the IC50 is below 1 µM.

As for `CC(C)n1ncnc1-c1cc2n(n1)-c1cc(C(=O)Nc3cnn(CCO)c3)ccc1OCC2`, the IC50 is below 1 µM. `CC(C)n1ncnc1-c1cn2c(n1)-c1cnc(N3CC=C[C@@H]3C(N)=O)cc1OCC2` yielded an IC50 below 1 µM.

For orientation: IC50 means the midpoint of a concentration-inhibition curve. Low values mean inhibition by little substance, high ones a need for much substance.
